These are literature values, as cited in patent publication US20120177733A1 (priority 2005, published 2012).

SMILES strings stand for the structures.

Assay in series [1]: not given
This is another data set of the same source.

With `CCOC(=O)C1=C(COCCN)NC(C)=C(C(=O)OC)C1c1ccccc1Cl` (stereo not shown) [Amlodipine besylate, 3-ethyl-5-methyl-2(2-aminoethoxymethyl)-4-(2-chlrorophenyl)-1,4-dihydro-6-methyl-3,5-pyridinedicarboxylate benzenesulphonate], the solubility in water result is “slightly soluble”. Besides, in series [1], the “absolute (oral) bioavailability” value is on record as 64-90%.

`CCCCC(=O)N(Cc1ccc(-c2ccccc2-c2nnn[nH]2)cc1)[C@H](C(=O)O)C(C)C` [valsartan, (S)—N-valeryl-N-{[2′-(1H-tetrazole-5-yl)-biphenyl-4-yl]-methyl}-valine]: in series [1], the “absolute (oral) bioavailability” value is “about 25%” and the “absolute oral bioavailability, wide range” value is 10-35%.
